Measurements taken from publication PMC8484168 (Cancer Chemotherapy and Pharmacology, 2021).

Legend:
[1] = Rucaparib steady-state trough plasma concentration (Cmin); format: in vivo, human; settings: rucaparib 600 mg BID from day 5
Description: This was a 2-part, phase 1, open-label, 2-arm DDI study in patients with advanced solid tumors. In Part 1 of the study, patients were screened for eligibility from day − 28 to − 2 and visited the study site from day − 1 to 23 (Fig. 1). […] To check steady-state plasma concentrations for rucaparib, a blood sample was collected prior to the dosing of rucaparib on days 5, 9, 11, 15, and 19–23.
Other PK parameters, calculated for the probe drugs, included half-life (t1/2), tmax, apparent total clearance of drug after oral administration (CL/F), and apparent volume of distribution during terminal phase (VZ/F). The PK parameter calculated for rucaparib at steady state was trough plasma concentration (Cmin). PK parameters were calculated by noncompartmental analysis using Phoenix WinNonlin, version 8.1 (Certara, Princeton, NJ).

[2] = Safety: TEAEs, Arm A (rucaparib + rosuvastatin); format: in vivo, human
Description: (§1) Safety was assessed separately during the 3 treatment periods: before rucaparib dosing (day 1 to 5), rucaparib dosing alone (day 6 to 18), and rucaparib with and after probe drug (day 19 to 23). Safety and tolerability assessments were made based on adverse events (AEs), clinical laboratory results, vital signs, 12-lead electrocardiogram (ECG) measurements, body weight, physical examination, concomitant medication/procedures, and ECOG performance status. AEs were classified according to the Medical Dictionary for Regulatory Activities (MedDRA) classification system version 22.1 [17] and graded according to the Common Terminology Criteria for Adverse Events (CTCAE) version 4.03 [18].

[3] = Safety: TEAEs, Arm B (rucaparib + oral contraceptives)
Description: as §1

[4] = system: breast cancer resistance protein (BCRP); design: method as in PMID 32129697; settings: read-out: 50% inhibitory concentration (IC50) for BCRP; transfected cells; cited from earlier work
CYP3As = system: CYP3As; design: method as in PMID 32129697; settings: human liver microsomes, reversible inhibition; cited from earlier work
CYP3A4 = system: CYP3A4; design: method as in PMID 32129697; settings: human hepatocytes; cited from earlier work
[5] = design: method as in PMID 29799676; settings: all dosages 40–500 mg QD or 240–840 mg BID; cited from earlier work
CYP3A = system: CYP3A; design: method as in PMID 30427584; settings: patients with an advanced solid tumor; cited from earlier work

SMILES: CNCc1ccc(-c2[nH]c3cc(F)cc4c3c2CCNC4=O)cc1 [rucaparib]
- days of continuous rucaparib dosing to steady state [1]: 4 days
- Abdominal distension ([2]; maximum severity 1): 1 (5.9) n (%)
- Abdominal pain ([2]; maximum severity 1): 1 (5.9) n (%)
- Blood creatinine increased ([2]; maximum severity 1): 1 (5.9) n (%)
- Diarrhea ([2]; maximum severity 1): 2 (11.8) n (%)
- Dyspepsia ([2]; maximum severity 1): 1 (5.9) n (%)
- Electrocardiogram QT prolonged ([2]; maximum severity 1): 1 (5.9) n (%)
- Gastrointestinal disorders ([2]; maximum severity 1): 3 (17.6) n (%)
- General disorders and administration site conditions ([2]; maximum severity 1): 1 (5.9) n (%)
- Infections and infestations ([2]; maximum severity 1): 1 (5.9) n (%)
- Investigations ([2]; maximum severity 1): 2 (11.8) n (%)
- Nasopharyngitis ([2]; maximum severity 1): 1 (5.9) n (%)
- Peripheral swelling ([2]; maximum severity 1): 1 (5.9) n (%)
- Reproductive system and breast disorders ([2]; maximum severity 1): 0 n (%)
- Total patients with events ([2]; maximum severity 1): 5 (29.4) n (%)
- Vaginal hemorrhage ([2]; maximum severity 1): 0 n (%)
- Vomiting ([2]; maximum severity 1): 0 n (%)
- Abdominal pain ([2]; maximum severity 2): 1 (5.9) n (%)
- Abdominal pain upper ([2]; maximum severity 2): 1 (5.9) n (%)
- Body temperature increased ([2]; maximum severity 2): 0 n (%)
- Cardiac disorders ([2]; maximum severity 2): 1 (5.9) n (%)
- Diarrhea ([2]; maximum severity 2): 1 (5.9) n (%)
- Dyspepsia ([2]; maximum severity 2): 0 n (%)
- Electrocardiogram QT prolonged ([2]; maximum severity 2): 0 n (%)
- Gastrointestinal disorders ([2]; maximum severity 2): 3 (17.6) n (%)
- General disorders and administration site conditions ([2]; maximum severity 2): 2 (11.8) n (%)
- Infections and infestations ([2]; maximum severity 2): 1 (5.9) n (%)
- Investigations ([2]; maximum severity 2): 0 n (%)
- Noncardiac chest pain ([2]; maximum severity 2): 1 (5.9) n (%)
- Peripheral swelling ([2]; maximum severity 2): 1 (5.9) n (%)
- Sinus tachycardia ([2]; maximum severity 2): 1 (5.9) n (%)
- Total patients with events ([2]; maximum severity 2): 5 (29.4) n (%)
- Urinary tract infection ([2]; maximum severity 2): 1 (5.9) n (%)
- Vomiting ([2]; maximum severity 2): 1 (5.9) n (%)
- Deep vein thrombosis ([2]; maximum severity 3): 1 (5.9) n (%)
- Total patients with events ([2]; maximum severity 3): 1 (5.9) n (%)
- Vascular disorders ([2]; maximum severity 3): 1 (5.9) n (%)
- Pulmonary embolism ([2]; maximum severity 4): 1 (5.9) n (%)
- Respiratory, thoracic, and mediastinal disorders ([2]; maximum severity 4): 1 (5.9) n (%)
- Total patients with events ([2]; maximum severity 4): 1 (5.9) n (%)
- TEAEs considered related to rucaparib by the investigator ([2]; rucaparib alone day 5 to 19, of 10 patients with TEAE): 3
- Pharyngitis bacterial ([3]; Arm B, maximum severity 1): 1 (5.6) n (%)
- patients who experienced at least 1 TEAE ([3]; female, human, in vivo): 50.0%
- patients with TEAEs considered related to rucaparib ([3]; female, human, in vivo): 7 patients
- Abdominal discomfort ([3]; human, in vivo): 1 (5.6) n (%)
- Abdominal pain ([3]; human, in vivo): 1 (5.6) n (%)
- Accident ([3]; human, in vivo): 1 (5.6) n (%)
- Acute kidney injury ([3]; human, in vivo): 1 (5.6) n (%)
- Apathy ([3]; human, in vivo): 1 (5.6) n (%)
- Arthropod bite ([3]; human, in vivo): 1 (5.6) n (%)
- Ascites ([3]; human, in vivo): 1 (5.6) n (%)
- Aspartate aminotransferase increased ([3]; human, in vivo): 1 (5.6) n (%)
- Cerebrovascular accident ([3]; human, in vivo): 0 n (%)
- Diarrhea ([3]; human, in vivo): 0 n (%)
- Dysgeusia ([3]; human, in vivo): 2 (11.1) n (%)
- Erythema ([3]; human, in vivo): 0 n (%)
- General disorders and administration site conditions ([3]; human, in vivo): 1 (5.6) n (%)
- Headache ([3]; human, in vivo): 1 (5.6) n (%)
- Infections and infestations ([3]; human, in vivo): 1 (5.6) n (%)
- Injury, poisoning, and procedural complications ([3]; human, in vivo): 1 (5.6) n (%)
- Musculoskeletal and connective tissue disorders ([3]; human, in vivo): 1 (5.6) n (%)
- Musculoskeletal pain ([3]; human, in vivo): 1 (5.6) n (%)
- Nausea ([3]; human, in vivo): 1 (5.6) n (%)
- Onycholysis ([3]; human, in vivo): 1 (5.6) n (%)
- Peripheral swelling ([3]; human, in vivo): 1 (5.6) n (%)
- Psychiatric disorders ([3]; human, in vivo): 1 (5.6) n (%)
- Renal and urinary disorders ([3]; human, in vivo): 1 (5.6) n (%)
- Skin and subcutaneous tissue disorders ([3]; human, in vivo): 1 (5.6) n (%)
- Skin hemorrhage ([3]; human, in vivo): 1 (5.6) n (%)
- Somnolence ([3]; human, in vivo): 1 (5.6) n (%)
- Taste disorder ([3]; human, in vivo): 1 (5.6) n (%)
- Thrombocytopenia ([3]; human, in vivo): 0 n (%)
- IC50 [4]: 55 µM
- IC50 (CYP3As): 17.2 to 22.9 µM
- CYP3A4 mRNA expression (CYP3A4): down-regulated
- CYP3A activities (CYP3A4): reduced
- steady state of plasma rucaparib PK achieved by day [5]: ≤ 8 days
- inhibition of CYP3A at steady state (CYP3A): weakly inhibited
